{
  "source": "patent US20110034407A1",
  "about": "“USE OF SPHINGOMYELIN AND NON-DIGESTIBLE CARBOHYDRATES FOR IMPROVING INTESTINAL MICROBIOTA” (N. V. Nutricia, priority 2007, published 2011)",
  "key": {"[1]": {"system": "Bifidobacteria", "assay": "Faecal fermentation in dialysis tubes, FISH with Bifl 64 probe", "assay_type": "cell-based", "settings": "t = 72 h versus t = 0", "protocol": "(§1) Pooled fresh faeces obtained from 4-5 healthy adults was used to perform fermentation studies as described in Appendix I of WO 2004/000340. The experiments were performed in duplo. The faeces, diluted 1:5 into McBain and Farlane medium, was put into dialysis tubes and suspended in bottles with buffer under anaerobic conditions and was first incubated at 37° C. for 16 h for reasons of adaptation before inoculating them with the substrates according to the table below at t=0.\n(§2) The test substrates were added once a day (at t=0, 24, and 48 hours). Buffer was refreshed once a day. A sample was taken at t=0 and t=72. This relatively long period was used since shifts in bacterial populations are relatively slow compared to the shifts in short chain acids formed.\n(§3) The sphingosine was dissolved in ethanol (stock 10 mg/ml). 30 μl of a stock of 10 mg/ml was added to the dialysis tube.\n(§4) The samples were analysed by Fluorescence In Situ Hybridisation (FISH) as described in Franks, A. H., et al., Appl. Environ. Microbiol., 1998. 64(9): p. […] Total number of bacteria was determined by DAPI staining. The ratio Firmicutes/Bacteroidetes was set at the percentage of bacteria detected by the Chis150, Clit135, Erec482 and Lab158 probe, divided by the percentage of bacteria […] by the Bac303 probe. The bacteria detected by the Erec482 group are usually the largest group of Firmicutes in the human intestine."}, "[2]": {"system": "Eubacterium rectale and Clostridium coccoides group", "assay": "Faecal fermentation in dialysis tubes, FISH with Erec482 probe", "assay_type": "cell-based", "settings": "t = 72 h versus t = 0", "protocol": "as §1, §2, §3, §4"}},
  "data": [
    {"smiles": "CCCCCCCCCCCCC/C=C/[C@@H](O)[C@@H](N)CO", "note": "[Number 1, D-sphingosine]", "values": [
      {"measurement": "change in bifidobacteria (in words)", "setting": "[1]", "value": "increase"},
      {"measurement": "change in Clostridia and Eubacteria, largest group of intestinal Firmicutes (in words)", "setting": "[2]", "value": "decrease"}
    ]}
  ]
}
